This passage reports IC50 results from patent US10689331B2, “IDO inhibitors” (Bristol-Myers Squibb Company, priority 2015, dated 2020).

Bounds are passed on as bounds.

The target of the assay is T1, human IDO1 (Homo sapiens, UniProt P14902).
T1 construct: expressed in transfected cells
The assay is described as follows: HEK Human IDO-1 inhibition assay (kynurenine readout, Ehrlich reagent, absorbance 490 nm). In kind it is cell-based. As to conditions: human IDO1/HEK293 cells, incubated 20 hours with compound; 500 nM reference standard = 100% inhibition. The protocol:
HEK293 cells were transfected with a pCDNA-based mammalian expression vector harboring human IDO1 cDNA (NM 002164.2) by electroporation. They were cultured in medium (DMEM with 10% FBS) containing 1 mg/ml G418 for two weeks. Clones of HEK293 cells that stably expressed human IDO1 protein were selected and expanded for IDO inhibition assay.
The human IDO1/HEK293 cells were seeded at 10,000 cells per 50 uL per well with RPMI/phenol red free media contains 10% FBS in a 384-well black wall clear bottom tissue culture plate (Matrix Technologies LLC) 100 nL of certain concentration of compound was then added to each well using ECHO liquid handling systems. The cells were incubated for 20 hours in 37° C. incubator with 5% CO2.
The compound treatments were stopped by adding Trichloroacetic Acid (Sigma-Aldrich) to a final concentration at 0.2%. The cell plate was further incubated at 50° C. for 30 minute. The equal volume supernatant (20 uL) and 0.2% (w/v) Ehrlich reagent (4-dimethylaminobenzaldehyde, Sigma-Aldrich) in glacial acetic acid were mixed in a new clear bottom 384-well plate. This plate was then incubated at room temperature for 30 minute. The absorbance at 490 nm was measured on Envision plate reader. Compound IC50 values were calculated using the counts of 500 nM of a reference standard treatment as one hundred percent inhibition, and counts of no compound but DMSO treatment as zero percent inhibition.

T1 sequence (P14902 whole entry): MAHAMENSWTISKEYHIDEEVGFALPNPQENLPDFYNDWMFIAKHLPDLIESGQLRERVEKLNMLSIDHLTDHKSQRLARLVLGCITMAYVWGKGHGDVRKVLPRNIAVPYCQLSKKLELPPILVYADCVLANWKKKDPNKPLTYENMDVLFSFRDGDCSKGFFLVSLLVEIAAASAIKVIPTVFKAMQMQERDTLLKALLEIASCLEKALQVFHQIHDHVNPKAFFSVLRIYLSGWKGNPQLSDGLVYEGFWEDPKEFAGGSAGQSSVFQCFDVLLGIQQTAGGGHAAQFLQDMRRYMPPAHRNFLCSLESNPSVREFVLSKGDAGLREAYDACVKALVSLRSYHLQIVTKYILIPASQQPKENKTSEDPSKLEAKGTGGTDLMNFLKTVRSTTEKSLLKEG

For `COc1ccc(NC(=O)Nc2cc(OC(C)C(=O)O)ccc2N(CC(C)C)C2CCCCC2)c(F)c1` (single isomer, unassigned) [Example 64-1, 2-(4-(cyclohexyl(isobutyl)amino)-3-(3-(2-fluoro-4-methoxyphenyl)ureido)phenoxy)propanoic acid], the IC50 was under 100 nM.
As for `COc1ccc(NC(=O)Nc2cc(OCC(=O)O)ccc2N(CC(C)C)C2CCCCC2)cc1F` [Example 34, 2-(4-(cyclohexyl(isobutyl)amino)-3-(3-(3-fluoro-4-methoxyphenyl)ureido)phenoxy) acetic acid], the IC50 is at least 100 nM.
`CC(C)CN(c1ccc(OCc2nnn[nH]2)cc1NC(=O)Nc1ccc(Cl)cc1F)C1CCCCC1` [Example 96, 1-(5-((1H-tetrazol-5-yl)methoxy)-2-(cyclohexyl(isobutyl)amino)phenyl)-3-(4-chloro-2-fluorophenyl)urea]: the concentration for half-maximal inhibition (IC50) is under 5 nM.
For `Cc1ccc(NC(=O)Nc2cc(OCC(=O)O)ccc2N(CC(C)C)C2CCCCC2)c(F)c1` [Example 23, 2-(4-(cyclohexyl(isobutyl)amino)-3-(3-(2-fluoro-4-methylphenyl)ureido)phenoxy) acetic acid], the IC50 is under 5 nM.
Consider `CC(C)CN(c1ccc(OCC(N)=O)cc1NC(=O)Nc1ccc(Cl)cc1F)C1CCCCC1` [Example 153, 2-(3-(3-(4-chloro-2-fluorophenyl)ureido)-4-(cyclohexyl(isobutyl)amino)phenoxy)acetamide], for which the IC50 was at least 100 nM.
As for `CCC(Oc1ccc(N(CC(C)C)C2CCCCC2)c(NC(=O)Nc2ccc(C)cc2)c1)C(=O)O` (single isomer, unassigned) [Example 82-2, 2-(4-(cyclohexyl(isobutyl)amino)-3-(3-(p-tolyl)ureido)phenoxy)butanoic acid], the concentration for half-maximal inhibition (IC50) was under 100 nM.
For `CC(C)CN(c1ccc(OCC(=O)O)cc1NC(=O)Nc1cccc(C(F)(F)F)c1F)C1CCCCC1` [Example 27, 2-(4-(cylclohexyl(isobutyl)amino)-3-(3-(2-fluoro-3-(trifluoromethyl)phenyl)ureido)phenoxy)acetic acid], the IC50 is at least 100 nM.
As for `CC(C)CN(c1ccc(OCC(=O)O)cc1NC(=O)Nc1ccc(C(F)(F)F)c(F)c1)C1CCCCC1` [Example 35, 2-(4-(cyclohexyl(isobutyl)amino)-3-(3-(3-fluoro-4-(trifluoromethyl)phenyl)ureido)phenoxy)acetic acid], the IC50 was at least 100 nM.
In the case of `CC(C)CN(c1ccc(OC(C)C(=O)O)cc1NC(=O)Cc1ccc(Cl)cc1F)C1CCCCC1` (racemic) [Example 73], the IC50 was under 100 nM.
For the molecule `CC(C)CN(c1ccc(OCC(=O)O)cc1NC(=O)Cc1ccc(F)cc1F)C1CCCCC1` [Example 56, 2-(4-(cyclohexyl(isobutyl)amino)-3-(2-(2,4-difluorophenyl)acetamido)phenoxy)acetic acid], the half-maximal inhibitory concentration (IC50) was at least 100 nM.
The figure for `CC(C)CN(c1ccc(OCC(=O)O)cc1NC(=O)Nc1ccc(Cl)cc1F)C1CCCCC1` [Example 1, 2-(3-(3-(4-chloro-2-fluorophenyl)ureido)-4-(cyclohexyl(isobutyl)amino)phenoxy)acetic acid] is under 5 nM.
As to `CC(C)CN(c1ccc(OCC(=O)O)cc1NC(=O)Nc1cccnc1)C1CCCCC1` [Example 3, 2-(4-(cyclohexyl(isobutyl)amino)-3-(3-(pyridin-3-yl)ureido)phenoxy)acetic acid], the half-maximal inhibitory concentration (IC50) is at least 100 nM.
Take `CC(C)CN(c1ccc(OCC(=O)O)cc1NC(=O)Nc1ccc(Oc2ccccc2)cc1)C1CCCCC1` [Example 13, 2-(4-(cyclohexyl(isobutyl)amino)-3-(3-(4-phenoxyphenyl)ureido)phenoxy)acetic acid]: the IC50 was at least 100 nM.
Regarding `CC(C)CN(c1ccc(OCC(=O)NS(=O)(=O)N(C)C)cc1NC(=O)Nc1ccccc1F)C1CCCCC1` [Example 51, 2-(4-(cyclohexyl(isobutyl)amino)-3-(3-(2-fluoro-phenyl)ureido)phenoxy)-N—(N,N-dimethylsulfamoyl)acetamide], the concentration for half-maximal inhibition (IC50) was under 5 nM.
`CC(C)CN(c1ccc(OCC(=O)O)cc1NC(=O)N(C)c1ccc(F)cc1)C1CCCCC1` [Example 41, 2-(4-(cyclohexyl(isobutyl)amino)-3-(3-(4-fluorophenyl)-3-methyl-ureido)phenoxy)acetic acid]: the IC50 is at least 100 nM.
Take `CCCN(Cc1ccccc1)c1ccc(OCC(=O)O)cc1NC(=O)Nc1ccc(OCC)cc1` [Example 161, 2-(4-(benzyl(propyl)amino)-3-(3-(4-ethoxyphenyl)ureido)phenoxy)acetic acid]: the IC50 was at least 100 nM.
For `CC(C)CN(c1ccc(OCC(=O)O)cc1NC(=O)Nc1cc(F)cc(Cl)c1)C1CCCCC1` [Example 37, 2-(3-(3-(3-chloro-5-fluorophenyl)ureido)-4-(cyclo-hexyl(isobutyl)amino)phenoxy) acetic acid], the half-inhibitory concentration (IC50) was at least 100 nM.
`Cc1cc(NC(=O)Nc2cc(OCC(=O)O)ccc2N(CC(C)C)C2CCCCC2)on1` [Example 4, 2-(4-(cyclohexyl(isobutyl)amino)-3-(3-(3-methylisoxazol-5-yl)ureido)phenoxy)acetic acid]: the IC50 was under 100 nM.
As for `CC(C)CN(c1cc(F)c(OCC(=O)O)cc1NC(=O)Nc1ccc(Cl)cc1F)C1CCCCC1` [Example 115, 2-(5-(3-(4-chloro-2-fluorophenyl)ureido)-4-(cyclohexyl(isobutyl)amino)-2-fluorophenoxy)acetic acid], the figure is under 5 nM; as for `CC(C)CN(c1c(F)cc(OCC(=O)NS(=O)(=O)C2CC2)cc1NC(=O)Nc1ccc(Cl)cc1F)C1CCCCC1` [Example 105, 2-(3-(3-(4-chloro-2-fluorophenyl)ureido)-4-(cyclohexyl(isobutyl)amino)-5-fluorophenoxy)-N-(cyclopropylsulfonyl)acetamide], under 5 nM; as for `CCCC(Oc1ccc(N(CC(C)C)C2CCCCC2)c(NC(=O)Nc2cncnc2)c1)C(=O)O` (single isomer, unassigned) [Example 88-1, 2-(4-(cyclohexyl(isobutyl)amino)-3-(3-(pyrimidin-5-yl)ureido)phenoxy)pentanoic acid], at least 100 nM.
For `COC1CCC(N(CC(C)C)c2ccc(OCC(=O)O)cc2NC(=O)Nc2ccc(Cl)cc2F)CC1` (stereo not shown) [Example 152, 2-(3-(3-(4-chloro-2-fluorophenyl)ureido)-4-(isobutyl(0-4-methoxycyclohexyl)amino)phenoxy)acetic acid], the IC50 was at least 100 nM.
As for `COCC(Oc1ccc(N(CC(C)C)C2CCCCC2)c(NC(=O)Nc2ccc(C)cc2)c1)C(=O)O` (single isomer, unassigned) [Example 90-1, 2-(4-(cyclohexyl(isobutyl)amino)-3-(3-(p-tolyl)ureido)phenoxy)-3-methoxypropanoic acid], the figure is at least 100 nM.
The figure for `CC(C)CN(c1ncc(OCC(=O)NS(=O)(=O)C2CC2)cc1NC(=O)Nc1ccc(Cl)cc1F)C1CCCCC1` [Example 103, 2-((5-(3-(4-chloro-2-fluorophenyl)ureido)-6-(cyclohexyl(isobutyl)amino)pyridin-3-yl)oxy)-N-(cyclopropylsulfonyl)acetamide] is under 5 nM; for `CC(C)CN(c1ccc(OCC(=O)O)cc1NC(=O)Nc1cc(Cl)ccc1F)C1CCCCC1` [Example 22, 2-(3-(3-(5-chloro-2-fluorophenyl)ureido)-4-(cyclohexyl(isobutyl)amino)phenoxy)acetic acid] it is under 100 nM.

For orientation: IC50 means the concentration that gives 50% inhibition.
